The results in this text go back to ChEMBL document CHEMBL1128035, “Structural optimization of alkyl-substituted 2-(7-5H-[1]benzopyrano[2,3-b]pyridyl)propionic acid as anti-inflammatory agents” (Bioorg Med Chem Lett, 1995).

The term logD denotes lipophilicity at a set pH, counting ionised and neutral species. The low end stands for lower lipophilicity, the high end for higher lipophilicity. For orientation: IC50 means the point on the concentration scale where inhibition reaches its midpoint. Read a low IC50 as higher potency.

The nature of data set [1]: Partition coefficient measured in n-octanol/ pH 7.4 phosphate buffer. It counts as physicochemical.
The target of data set [2] is T1, Prostaglandin G/H synthase 1 (Ovis aries, UniProt P05979).
T1 sequence (P05979 whole entry): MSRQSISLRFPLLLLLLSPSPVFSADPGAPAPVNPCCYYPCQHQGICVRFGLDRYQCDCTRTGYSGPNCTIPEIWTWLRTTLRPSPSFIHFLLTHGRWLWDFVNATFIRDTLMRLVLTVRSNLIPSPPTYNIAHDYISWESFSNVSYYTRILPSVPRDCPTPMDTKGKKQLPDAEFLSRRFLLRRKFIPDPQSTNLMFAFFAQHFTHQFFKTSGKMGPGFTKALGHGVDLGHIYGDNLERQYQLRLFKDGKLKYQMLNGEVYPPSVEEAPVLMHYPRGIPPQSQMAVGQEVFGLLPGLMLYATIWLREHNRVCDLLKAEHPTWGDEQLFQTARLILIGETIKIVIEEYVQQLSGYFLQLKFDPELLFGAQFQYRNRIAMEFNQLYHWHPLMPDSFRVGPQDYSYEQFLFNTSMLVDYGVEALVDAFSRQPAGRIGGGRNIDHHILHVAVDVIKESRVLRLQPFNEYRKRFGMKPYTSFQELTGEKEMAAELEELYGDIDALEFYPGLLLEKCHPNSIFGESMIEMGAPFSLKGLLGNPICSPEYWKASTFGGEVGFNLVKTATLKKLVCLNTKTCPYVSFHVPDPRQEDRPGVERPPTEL
Nature of the data set: Inhibitory activity against COX-1 from ram seminal vesicles.

Data set [3] concerns the target T2, Prostaglandin G/H synthase 1 (Rattus norvegicus, UniProt Q63921).
T2 sequence (Q63921 whole entry): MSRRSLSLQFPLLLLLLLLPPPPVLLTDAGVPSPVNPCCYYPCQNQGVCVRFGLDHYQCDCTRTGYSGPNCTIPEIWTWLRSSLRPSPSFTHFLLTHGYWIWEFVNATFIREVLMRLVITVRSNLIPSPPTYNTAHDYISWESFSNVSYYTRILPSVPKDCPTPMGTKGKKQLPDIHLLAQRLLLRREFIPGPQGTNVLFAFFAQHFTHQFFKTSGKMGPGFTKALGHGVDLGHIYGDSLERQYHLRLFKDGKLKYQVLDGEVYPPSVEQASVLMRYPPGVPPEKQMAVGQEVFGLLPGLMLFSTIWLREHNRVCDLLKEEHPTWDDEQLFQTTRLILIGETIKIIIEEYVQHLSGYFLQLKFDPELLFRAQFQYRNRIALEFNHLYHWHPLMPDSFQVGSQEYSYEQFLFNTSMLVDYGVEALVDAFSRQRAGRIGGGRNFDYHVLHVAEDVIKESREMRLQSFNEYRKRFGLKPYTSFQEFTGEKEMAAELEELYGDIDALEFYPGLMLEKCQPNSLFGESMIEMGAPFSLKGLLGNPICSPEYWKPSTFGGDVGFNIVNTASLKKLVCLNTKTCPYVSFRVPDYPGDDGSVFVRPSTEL
Kind of data set: Inhibitory activity against COX-1 from rat peritoneal leukocytes, measured by PGE-2 produced (enzyme immunoassay).

Turning to `CC(C)c1ccc2c(n1)Oc1ccc(C(C)C(=O)O)cc1C2` (configuration not stated), in data set [1], the log distribution coefficient (logD) is 0.67. The 50% inhibitory concentration (IC50) in data set [2] is more than 100000 nM.
Taken in the same sequence, the figures for `Cc1ccnc2c1Cc1cc(C(C)C(=O)O)ccc1O2` (configuration not stated) were -0.17 and more than 100000 nM.
Taken in the same sequence, the figures for `Cc1cnc2c(c1)Cc1cc(C(C)C(=O)O)ccc1O2` (configuration not stated) were 0.03 and 11000 nM.
Regarding `CCc1ccc2c(n1)Oc1ccc(C(C)C(=O)O)cc1C2` (configuration not stated), the logD in data set [1] worked out at 0.45. Also, the IC50 in data set [3] amounted to 110 nM; in data set [2] it was 850 nM.
For the compound `Cc1ccc2c(n1)Oc1ccc(C(C)C(=O)O)cc1C2` (configuration not stated), in data set [1], the log distribution coefficient (logD) was -0.11. In addition, the results for the 50% inhibitory concentration (IC50) in data set [3] and in data set [2] were 30 nM and 320 nM, respectively.
`CCCc1ccc2c(n1)Oc1ccc(C(C)C(=O)O)cc1C2` (configuration not stated) yielded a pH-dependent lipophilicity (logD) in data set [1] of 1.08. This compound registered an IC50 in data set [2] of more than 100000 nM.
Turning to `CC(C(=O)O)c1ccc2c(c1)Cc1cccnc1O2` (configuration not stated) [PRANOPROFEN], in data set [1], the logD is -0.72. Further, the figures for the IC50 in data set [3] and in data set [2] were 390 nM and 3100 nM, respectively.
